# Read-outs that look alike come from different tables or passages of the source.
# What was measured:
# corn = test: Test B pre-/postemergence herbicide test; type: in vivo, Zea mays; conditions: for plant injury at 125 g/ha / Corn plant response rating (crop injury, 0 = no effect, 100 = complete kill) at 500 g/ha / plant injury at 500 g/ha / Corn plant response rating (crop injury, 0 = no effect, 100 = complete kill) at 125 g/ha: Zea mays
# Outline: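 Test chemicals in a non-phytotoxic solvent mixture with surfactant were applied preemergence to seeded species and postemergence to plants 2-18 cm tall (1- to 4-leaf stage); rice and barnyardgrass were also tested in a flooded paddy at the 2-leaf stage. Visual rating versus controls after 13-15 days in greenhouse, scale 0 (no effect) to 100 (complete control).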
# wild oat = test: Test B postemergence herbicide test; type: in vivo, Avena fatua; conditions: for pest or weed control at 125 g/ha / pest or weed control at 500 g/ha: Avena fatua, post-emergence, 336 h, read-out: Oat, Wild plant response rating; for Plant response rating, Oat, Wild: visual rating after 13 to 15 days
# Outline: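 Each value is a visual 0–100 response rating taken against controls 13 to 15 days after treatment in the greenhouse. Plants received formulated chemical postemergence at the 1- to 4-leaf stage or, in flooded paddy, at the 2-leaf stage.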
# [1] = Postemergence, 500 g ai/ha, scale 0 (no effect) to 100 (complete control)
# [2] = postemergence, 125 g ai/ha, visual rating, scale 0 (no effect) to 100 (complete control)
# [3] = preemergence, 125 g ai/ha, 0 to 100 scale, 0 is no effect, 100 is complete control
# [4] = post-emergence, postemergence, 125 g ai/ha, visual rating, scale 0 (no effect) to 100 (complete control), read-out: Corn plant response rating
# [5] = post-emergence, postemergence, 500 g ai/ha, visual rating, scale 0 (no effect) to 100 (complete control), read-out: Corn plant response rating
# [6] = pre-emergence, 500 g ai/ha, visual rating 0-100, 0 no effect, 100 complete control
# [7] = pre-emergence, preemergence, 125 g ai/ha, 0 to 100 scale, 0 is no effect, 100 is complete control
# [8] = postemergence, 500 g ai/ha, visual rating, scale 0 (no effect) to 100 (complete control)
# [9] = pre-emergence, 125 g ai/ha, 0 = no effect, 100 = complete control, read-out: Corn plant response rating (0 to 100 scale)
# [10] = pre-emergence, 500 g ai/ha, visual rating, 0 = no effect, 100 = complete control
# [11] = post-emergence, postemergence, 500 g ai/ha, scale 0 to 100, 0 is no effect, 100 is complete control, read-out: Corn plant response rating
# [12] = postemergence, 500 g ai/ha, scale 0 to 100, 0 is no effect, 100 is complete control
# [13] = 125 g ai/ha, 0 = no effect, 100 = complete control, preemergence
# [14] = 500 g ai/ha, visual rating, 0 = no effect, 100 = complete control, preemergence
# [15] = 125 g ai/ha, visual rating, scale 0 (no effect) to 100 (complete control), postemergence
# [16] = 125 g ai/ha, 0 is no effect, 100 is complete control, preemergence
# [17] = postemergence, 125 g ai/ha, scale 0 to 100
smiles,measurement,setting,value
"CCn1nc(C(C)(C)C)cc1C(=O)Nc1cccc(C(=O)NCC(F)(F)F)c1 [Compound 43, 3-(1,1-dimethylethyl)-1-ethyl-N-[3-[[(2,2,2-trifluoroethyl)amino]carbonyl]-phenyl]-1H-pyrazole-5-carboxamide]",plant injury at 125 g/ha,"corn; post-emergence, Postemergence, 125 g ai/ha, scale 0 (no effect) to 100 (complete control), read-out: Corn plant response rating",20%
same,"Corn plant response rating (crop injury, 0 = no effect, 100 = complete kill) at 500 g/ha","corn; post-emergence, Postemergence, 500 g ai/ha, visual rating after 13 to 15 days, scale 0 (no effect) to 100 (complete control)",30%
same,plant injury at 500 g/ha,"corn; pre-emergence, Preemergence, 500 g ai/ha, scale 0 to 100, read-out: Corn plant response rating",10%
same,pest or weed control at 125 g/ha,"wild oat; Postemergence, 125 g ai/ha, scale 0 (no effect) to 100 (complete control)",10%
same,"Plant response rating, Oat, Wild",wild oat; [1],30
CCn1nc(C(C)(C)C)cc1C(=O)Nc1cccc(C(=O)NOC)c1 [Compound 67],"Plant response rating, Corn","corn; Postemergence, 500 g ai/ha, visual rating after 13 to 15 days, scale 0 (no effect) to 100 (complete control)",10
same,Corn plant response rating,corn; [2],10
same,"Plant response rating, Corn",corn; [3],0
same,"Plant response rating, Oat, Wild",wild oat; [1],30
same,"Oat, Wild plant response rating",wild oat; [2],10
CCOC(=O)c1cccc(NC(=O)c2cc(C(C)(C)C)nn2CCF)c1 [Compound 79],Corn plant response rating,"corn; Preemergence, 500 g ai/ha, scale 0 to 100",0
same,"Plant response rating, Corn",corn; [3],0
same,"Plant response rating, Oat, Wild",wild oat; [1],30
same,"Oat, Wild plant response rating",wild oat; [2],20
C=CCn1nc(C(C)(C)C)cc1C(=O)Nc1cccc(C(C)=NO)c1 [Compound 117],"Plant response rating, Corn","corn; 500 g ai/ha, visual rating 0-100, 0 no effect, 100 complete control, preemergence",30
same,"Plant response rating, Corn",corn; [3],0
same,"Plant response rating, Oat, Wild",wild oat; [1],20
same,"Oat, Wild plant response rating",wild oat; [2],10
"CCn1nc(C(C)(C)C)cc1C(=O)Nc1cccc(C(=O)OC)n1 [Compound 143, methyl 6-[[[3-(1,1-dimethylethyl)-1-ethyl-1H-pyrazol-5-yl]carbonyl]amino]-2-pyridinecarboxylate]",plant injury at 125 g/ha,corn; [4],0%
same,plant injury at 500 g/ha,corn; [5],10%
same,"Corn plant response rating (crop injury, 0 = no effect, 100 = complete kill) at 500 g/ha",corn; [6],0%
same,"Corn plant response rating (crop injury, 0 = no effect, 100 = complete kill) at 125 g/ha",corn; [7],0%
same,pest or weed control at 125 g/ha,wild oat; [2],0%
same,pest or weed control at 500 g/ha,wild oat; [8],20%
"CCn1nc(C(C)(C)C)cc1C(=O)Nc1cc(C(=O)OC)ccn1 [Compound 151, methyl 2-[[[3-(1,1-dimethylethyl)-1-ethyl-1H-pyrazol-5-yl]carbonyl]amino]-4-pyridinecarboxylate]",plant injury at 125 g/ha,corn; [4],10%
same,plant injury at 500 g/ha,corn; [5],10%
same,"Corn plant response rating (crop injury, 0 = no effect, 100 = complete kill) at 500 g/ha",corn; [6],0%
same,"Corn plant response rating (crop injury, 0 = no effect, 100 = complete kill) at 125 g/ha",corn; [7],0%
same,pest or weed control at 125 g/ha,wild oat; [2],10%
same,pest or weed control at 500 g/ha,wild oat; [8],30%
"CCn1nc(C(C)(C)C)cc1C(=O)Nc1ccc(F)c(C(=O)N(C)C)c1 [Compound 236, N-[3-[(dimethylamino)carbonyl]-4-fluorophenyl]-3-(1,1-dimethylethyl)-1-ethyl-1H-pyrazole-5-carboxamide]",plant injury at 125 g/ha,corn; [4],20%
same,plant injury at 500 g/ha,corn; [5],40%
same,plant injury at 125 g/ha,corn; [9],0%
same,"Corn plant response rating (crop injury, 0 = no effect, 100 = complete kill) at 500 g/ha",corn; [10],10%
same,pest or weed control at 125 g/ha,wild oat; [2],20%
same,pest or weed control at 500 g/ha,wild oat; [8],20%
"CCNC(=O)c1cc(NC(=O)c2cn(C(C)(C)C)nc2CC)ccc1F [Compound 241, 1-(1,1-dimethylethyl)-3-ethyl-N-[3-[(ethylamino)carbonyl]-4-fluorophenyl]-1H-pyrazole-4-carboxamide]",plant injury at 125 g/ha,corn; [4],0%
same,plant injury at 500 g/ha,corn; [11],10%
same,plant injury at 125 g/ha,corn; [9],0%
same,"Corn plant response rating (crop injury, 0 = no effect, 100 = complete kill) at 500 g/ha",corn; [10],30%
same,pest or weed control at 125 g/ha,wild oat; [2],0%
same,pest or weed control at 500 g/ha,wild oat; [12],20%
CCn1nc(C(C)(C)C)cc1C(=O)Nc1cc(C(=O)OC(C)C)c(F)cc1F [Compound 248],Corn plant response rating (0 to 100 scale),corn; [13],0
same,"Plant response rating, Corn",corn; [14],0
same,Corn plant response rating,corn; [2],20
same,Corn plant response rating,corn; [12],30
same,"Oat, Wild plant response rating",wild oat; [2],30
same,"Oat, Wild plant response rating",wild oat; [12],60
"CCOC(=O)c1ccc(F)c(NC(=O)C2CC(C(C)(C)C)=NN2CC)c1 (stereo not drawn) [Compound 267, ethyl 3-[[[3-(1,1-dimethylethyl)-1-ethyl-4,5-dihydro-1H-pyrazol-5-yl]carbonyl]amino]-4-fluorobenzoate]",plant injury at 125 g/ha,corn; [4],20%
same,plant injury at 500 g/ha,corn; [11],40%
same,plant injury at 125 g/ha,corn; [9],0%
same,"Corn plant response rating (crop injury, 0 = no effect, 100 = complete kill) at 500 g/ha",corn; [10],20%
same,pest or weed control at 125 g/ha,wild oat; [2],30%
same,pest or weed control at 500 g/ha,wild oat; [12],40%
CCn1nc(C(C)(C)C)cc1C(=O)Nc1cccc(OC(C)C)c1 [Compound 273],Corn plant response rating (0 to 100 scale),corn; [13],0
same,"Plant response rating, Corn",corn; [14],30
same,Corn plant response rating,corn; [2],10
same,Corn plant response rating,corn; [12],20
same,"Oat, Wild plant response rating",wild oat; [2],30
same,"Oat, Wild plant response rating",wild oat; [12],50
CCn1nc(C(C)(C)C)cc1C(=O)Nc1cccc(C(=O)N2CC=CC2)c1 [Compound 286],Corn plant response rating (0 to 100 scale),corn; [13],0
same,"Plant response rating, Corn",corn; [14],50
same,Corn plant response rating,corn; [2],0
same,Corn plant response rating,corn; [12],10
same,"Oat, Wild plant response rating",wild oat; [2],30
same,"Oat, Wild plant response rating",wild oat; [12],40
CCOC(=O)c1ccc(F)c(NC(=O)c2cc(C3(C)CC3)nn2CC)c1 [Compound 296],Corn plant response rating (0 to 100 scale),corn; [13],30
same,Corn plant response rating,corn; [15],30
same,"Plant response rating, Corn",corn; [14],40
same,Corn plant response rating,corn; [12],70
same,"Oat, Wild plant response rating",wild oat; [15],30
same,"Oat, Wild plant response rating",wild oat; [12],40
"CCc1nn(C(C)C)nc1C(=O)Nc1cccc(C(=O)N(C)C)c1 [Compound 358, N-[3-[(dimethylamino)carbonyl)phenyl]-5-ethyl-2-(1-methylethyl)-2H-1,2,3-triazole-4-carboxamide]","Plant response rating (0 to 100 scale), Corn",corn; [16],60
same,plant injury at 125 g/ha,"corn; post-emergence, 125 g ai/ha, visual rating, scale 0 (no effect) to 100 (complete control), read-out: Corn plant response rating",0%
same,plant injury at 500 g/ha,corn; [11],0%
same,"Corn plant response rating (crop injury, 0 = no effect, 100 = complete kill) at 500 g/ha",corn; [10],100%
same,pest or weed control at 125 g/ha,"wild oat; 125 g ai/ha, visual rating, scale 0 (no effect) to 100 (complete control)",20%
same,pest or weed control at 500 g/ha,wild oat; [12],30%
C#CCNC(=O)c1cccc(NC(=O)c2nn(C(C)(C)C)nc2CC)c1 [Compound 380],"Plant response rating (0 to 100 scale), Corn",corn; [16],0
same,Corn plant response rating,corn; [15],0
same,Corn plant response rating,corn; [12],20
same,"Oat, Wild plant response rating",wild oat; [15],10
same,"Oat, Wild plant response rating",wild oat; [1],30
C#CCOc1cccc(NC(=O)c2cc(C(C)(C)C)nn2CC)c1 [Compound 411],"Plant response rating (0 to 100 scale), Corn",corn; [16],0
same,Corn plant response rating,corn; [1],10
same,Corn plant response rating,corn; [17],10
same,"Oat, Wild plant response rating",wild oat; [1],50
same,"Oat, Wild plant response rating",wild oat; [17],40
C=CCOc1cccc(NC(=O)c2cc(C(C)(C)C)nn2CC)c1 [Compound 412],"Plant response rating (0 to 100 scale), Corn",corn; [16],0
same,Corn plant response rating,corn; [1],0
same,Corn plant response rating,corn; [17],0
same,"Oat, Wild plant response rating",wild oat; [1],40
same,"Oat, Wild plant response rating",wild oat; [17],30
